Columns and labels:
CDK2/A = target: T1, CDK2/A (Homo sapiens, UniProt P24941); assay: Inhibitory activity to CDK2 (FRET); format: biochemical; settings: for inhibition at 1 µM: read-out: CDK2 inhibition % (1 × 10^−6 mol/L)
T1 construct: purchased
Experimental: CDK2/A was purchased in the form of a kit or obtained through purification.
Procedures: CDK2/A is diluted to a suitable concentration with kinase diluent. The kinase reaction mixture contains CDK2/A, peptide substrate, HEPES (pH7.5), BRIJ-35, MgCl2 and EDTA. CDK2 phospho-peptide substrate is used as the control of 100% phosphorylation and ATP-free as the control of 0% phosphorylation. After 1 h, the diluted Development Reagent A is added into the reaction system. Then the reaction is allowed to proceed for 1 h and then quenched with Stop Reagent. […] The inhibitions of the tested compounds are calculated according to the formula.

Aurora A = target: T2, Aurora A (Homo sapiens, UniProt O14965); assay: Inhibitory activity to Aurora A (FRET); format: biochemical; settings: for inhibition at 1 µM: read-out: Aurora A inhibition % (1 × 10^−6 mol/L)
T2 construct: purchased
T2 sequence (O14965 1-403): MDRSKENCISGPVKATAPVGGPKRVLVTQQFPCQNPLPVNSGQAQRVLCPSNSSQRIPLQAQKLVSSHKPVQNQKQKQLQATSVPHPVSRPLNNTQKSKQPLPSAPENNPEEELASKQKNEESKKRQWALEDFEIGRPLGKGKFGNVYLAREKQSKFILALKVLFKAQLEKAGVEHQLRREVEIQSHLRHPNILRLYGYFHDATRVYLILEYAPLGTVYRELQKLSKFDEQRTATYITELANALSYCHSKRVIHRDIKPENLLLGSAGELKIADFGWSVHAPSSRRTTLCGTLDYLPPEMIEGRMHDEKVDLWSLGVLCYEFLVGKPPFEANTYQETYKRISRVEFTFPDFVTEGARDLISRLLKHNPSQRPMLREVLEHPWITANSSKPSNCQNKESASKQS
Experimental: The inhibitory activities of the synthesized compounds for Aurora A is determined by fluorescence resonance energy transfer (FRET) and were compared with the positive control drug so as to screen the compounds with better activities. Aurora A was purchased in the form of a kit or obtained through purification. Procedures: Aurora A is diluted to a suitable concentration with kinase diluent. The kinase reaction mixture contains Aurora A, peptide substrate, HEPES (pH7.5), BRIJ-35, MgCl2 and EDTA. Aurora A phospho-peptide substrate is used as the control of 100% phosphorylation and ATP-free as the control of 0% phosphorylation. After 1 h, the diluted Development Reagent A is added into the reaction system. Then the reaction is allowed to proceed for 1 h and then quenched with Stop Reagent. The excitation wavelength is 400 nm and the fluorescence intensity is detected at 445 nm (coumarin) and 520 nm (fluorescein). The inhibitions of the tested compounds are calculated according to the formula.

| CDK2 inhibition % (1 × 10^−6 mol/L) (CDK2/A) [%] | Aurora A inhibition % (1 × 10^−6 mol/L) (Aurora A) [%] | inhibition at 1 µM (CDK2/A) [%] | melting point [°C] | inhibition at 1 µM (Aurora A) [%] | Molecule |
| --- | --- | --- | --- | --- | --- |
| 76.91 | 67.63 | – | – | – | Cc1cc2c(Nc3c[nH]nc3C(=O)Nc3ccc(CN4CCOCC4)cc3)nccc2s1 [Compound I-28, 4-(4-(2-methylthieno[3,2-c]pyridyl)amino)-N-(4-((4-morpholinyl)methyl)phenyl)-1H-3-pyrazolecarboxamide] |
| – | – | 73.1 | 271 to 273 | 55.1 | O=C(Nc1ccc(CN2CCOCC2)cc1)c1n[nH]cc1Nc1nccc2ccsc12 [Compound I-30, 4-(7-thieno[2,3-c]pyridylamino)-N-(4-((4-morpholinyl)methyl)phenyl)-1H-3-pyrazolecarboxamide] |
| 45.34 | 70.27 | – | – | – | Cc1csc2c(Nc3c[nH]nc3C(=O)Nc3ccc(CN4CCN(C)CC4)cc3)nccc12 [Compound I-31, 4-(7-(3-methylthieno[2,3-c]pyridyl)amino)-N-(4-((4-methyl-1-piperazinyl)methyl)phenyl)-1H-3-pyrazolecarboxamide] |
| 38.28 | 67.45 | – | – | – | Cc1csc2c(Nc3c[nH]nc3C(=O)Nc3ccc(CN4CCOCC4)cc3)nccc12 [Compound I-32, 4-(7-(3-methylthieno[2,3-c]pyridyl)amino)-N-(4-((4-morpholinyl)methy)phenyl)-1H-3-pyrazolecarboxamide] |
| 44.93 | 45.08 | – | – | – | CN1CCN(Cc2ccc(NC(=O)c3n[nH]cc3Nc3nccc4occc34)cc2)CC1 [Compound I-33, 4-(4-furo[3,2-c]pyridylamino)-N-(4-((4-methyl-1-piperazinyl)menthyl)phenyl)-1H-3-pyrazolecarboxamide] |
| – | – | 65.8 | 268 to 271 | 50.5 | O=C(Nc1ccc(CN2CCOCC2)cc1)c1n[nH]cc1Nc1nccc2occc12 [Compound I-34, 4-(4-furo[3,2-c]pyridylamino)-N-(4-((4-morpholinyl)methyl)phenyl)-1H-3-pyrazolecarboxamide] |
| 73.23 | 55.99 | – | – | – | Cc1cc2c(Nc3c[nH]nc3C(=O)Nc3ccc(CN4CCN(C)CC4)cc3)nccc2o1 [Compound I-35, 4-(4-(2-methylfuro[3,2-c]pyridyl)amino)-N-(4-((4-methyl-1-piperazinyl)methyl)phenyl)-1H-3-pyrazolecarboxamide] |
| 64.51 | 56.23 | – | – | – | Cc1cc2c(Nc3c[nH]nc3C(=O)Nc3ccc(CN4CCOCC4)cc3)nccc2o1 [Compound I-36, 4-(4-(2-methylfuro[3,2-c]pyridyl)amino)-N-(4-((4-morpholinyl)methyl)phenyl)-1H-3-pyrazolecarboxamide] |
| 76.09 | 55.02 | – | – | – | CN1CCN(Cc2ccc(NC(=O)c3n[nH]cc3Nc3nccc4cc[nH]c34)cc2)CC1 [Compound I-43, 4-(7-(1H-pyrrolo[2,3-c]pyridyl)amino)-N-(4-((4-methyl-1-piperazinyl)methyl)phenyl)-1H-3-pyrazolecarboxamide] |
| 60.11 | 63.21 | – | – | – | Cc1cc2ccnc(Nc3c[nH]nc3C(=O)Nc3ccc(CN4CCN(C)CC4)cc3)c2[nH]1 [Compound I-45, 4-(7-(2-methyl-1H-pyrrolo[2,3-c]pyridyl)amino)-N-(4-((4-methyl-1-piperazinyl)methyl)phenyl)-1H-3-pyrazolecarboxamide] |
| 68.57 | 60.73 | – | – | – | Cc1cc2ccnc(Nc3c[nH]nc3C(=O)Nc3ccc(CN4CCOCC4)cc3)c2[nH]1 [Compound I-46, 4-(7-(2-methyl-1H-pyrrolo[2,3-c]pyridyl)amino)-N-(4-((4-morpholinyl)methyl)phenyl)-1H-3-pyrazolecarboxamide] |

More lines, now with the values behind:

| Molecule | CDK2 inhibition % (1 × 10^−6 mol/L) (CDK2/A) [%] | Aurora A inhibition % (1 × 10^−6 mol/L) (Aurora A) [%] | inhibition at 1 µM (CDK2/A) [%] | melting point [°C] | inhibition at 1 µM (Aurora A) [%] |
| --- | --- | --- | --- | --- | --- |
| 4-(7-(1H-pyrrolo[2,3-c]pyridyl)amino)-N-(4-((4-morpholinyl)methyl)phenyl)-1H-3-pyrazolecarboxamide [Compound I-44] | 75.91 | 54.94 | – | – | – |
| Cc1cc2c(Nc3c[nH]nc3C(=O)Nc3ccc(CN4CCOCC4)cc3)ncnc2s1 [Compound I-4, 4-(4-(6-methylthieno[2,3-d]pyrimidinyl)amino)-N-(4-((4-morpholinyl)methyl)phenyl)-1H-3-pyrazolecarboxamide] | 52.73 | 64.46 | – | – | – |
| Cc1csc2ncnc(Nc3c[nH]nc3C(=O)Nc3ccc(CN4CCN(C)CC4)cc3)c12 [Compound I-5, 4-(4-(5-methylthieno[2,3-d]pyrimidinyl)amino)-N-(4-((4-methyl-1-piperazinyl)methyl)phenyl)-1H-3-pyrazolecarboxamide] | 51.24 | 58.62 | – | – | – |
| Cc1csc2ncnc(Nc3c[nH]nc3C(=O)Nc3ccc(CN4CCOCC4)cc3)c12 [Compound I-6, 4-(4-(5-methylthieno[2,3-d]pyrimidinyl)amino)-N-(4-((4-morpholinyl)methyl)phenyl)-1H-3-pyrazolecarboxamide] | 60.68 | 54.80 | – | – | – |
| Cc1sc2ncnc(Nc3c[nH]nc3C(=O)Nc3ccc(CN4CCN(C)CC4)cc3)c2c1C [Compound I-7, 4-(4-(5,6-dimethylthieno[2,3-d]pyrimidinyl)amino)-N-(4-((4-methyl-1-piperazinyl)methyl)phenyl)-1H-3-pyrazolecarboxamide] | 65.12 | 54.93 | – | – | – |
| Cc1sc2ncnc(Nc3c[nH]nc3C(=O)Nc3ccc(CN4CCOCC4)cc3)c2c1C [Compound I-8, 4-(4-(5,6-dimethylthieno[2,3-d]pyrimidinyl)amino)-N-(4-((4-morpholinyl)methyl)phenyl)-1H-3-pyrazolecarboxamide] | 54.65 | 48.49 | – | – | – |
| O=C(Nc1ccc(CN2CCOCC2)cc1)c1n[nH]cc1Nc1ncnc2ccsc12 [Compound I-10, 4-(4-thieno[3,2-d]pyrimidinylamino)-N-(4-((4-morpholinyl)methyl)phenyl)-1H-3-pyrazolecarboxamide] | – | – | 56.2 | 275 to 277 | 54.9 |
| O=C(Nc1ccc(CN2CCOCC2)cc1)c1n[nH]cc1Nc1ncnc2[nH]ccc12 [Compound I-12, 4-(4-(7H-pyrrolo[2,3-d]pyrimidinyl)amino)-N-(4-((4-morpholinyl)methyl)phenyl)-1H-3-pyrazolecarboxamide] | 66.39 | 49.44 | – | – | – |
| Cc1cc2c(Nc3c[nH]nc3C(=O)Nc3ccc(CN4CCOCC4)cc3)ncnc2[nH]1 [Compound I-14, 4-(4-(6-methyl-7H-pyrrolo[2,3-d]pyrimidinyl)amino)-N-(4-((4-morpholinyl)methyl)phenyl)-1H-3-pyrazolecarboxamide] | 65.78 | 66.26 | – | – | – |
| O=C(Nc1ccc(CN2CCOCC2)cc1)c1n[nH]cc1Nc1ncnc2cc[nH]c12 [Compound I-18, 4-(4-(5H-pyrrolo[3,2-d]pyrimidinyl)amino)-N-(4-((4-morpholinyl)methyl)phenyl)-1H-3-pyrazolecarboxamide] | 64.99 | 53.66 | – | – | – |
| Cc1cc2ncnc(Nc3c[nH]nc3C(=O)Nc3ccc(CN4CCOCC4)cc3)c2[nH]1 [Compound I-20, 4-(4-(6-methyl-5H-pyrrolo[3,2-d]pyrimidinyl)amino)-N-(4-((4-morpholinyl)methyl)phenyl)-1H-3-pyrazolecarboxamide] | 62.25 | 60.72 | – | – | – |
| O=C(Nc1ccc(CN2CCOCC2)cc1)c1n[nH]cc1Nc1ncnc2ccoc12 [Compound I-24, 4-(4-furo[3,2-d]pyrimidinylamino)-N-(4-((4-morpholinyl)methyl)phenyl)-1H-3-pyrazolecarboxamide] | – | – | 67.1 | 271 to 273 | 49.2 |
| O=C(Nc1ccc(CN2CCOCC2)cc1)c1n[nH]cc1Nc1nccc2sccc12 [Compound I-26, 4-(4-thieno[3,2-c]pyridylamino)-N-(4-((4-morpholinyl)methyl)phenyl)-1H-3-pyrazolecarboxamide] | – | – | 73.1 | 269 to 271 | 61.1 |

Source: patent US9550792B2, “Polycyclic substituted pyrazole kinase activity inhibitors and use thereof” (priority 2013, dated 2017)
